# Measurements published in the supplement of paper PMC10307832.
# Experiments:
# Assay in all cases: relative viability (nuclei count vs DMSO), 5 days (fraction); higher = more cells survive
# NCI-H3122 = test system: NCI-H3122
# Method in brief: (§1)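 Lung cancer cell lines in 1536-well plates were dosed by pin tool the day after seeding, either with one drug alone or with a fixed anchor-drug dose plus five library-drug doses (not always all listed) in √10 steps. After 5 days, cells were fixed and their nuclei stained in one step (final 0.05% Triton X-100, 1% formaldehyde, 1 ug/ml Hoechst), then counted on 4× images. Relative viability is the nuclei count in treated wells divided by that in vehicle wells. Values are medians of duplicate plates.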
# PC-14 = test system: PC-14
# Method in brief: as §1
# NCI-H1355 = test system: NCI-H1355
# Method in brief: as §1
# NCI-H441 = test system: NCI-H441
# Method in brief: as §1
# NCI-H520 = test system: NCI-H520
# Method in brief: as §1
# NCI-H727 = test system: NCI-H727
# Method in brief: as §1
# NCI-H322M = test system: NCI-H322M
# Method in brief: as §1
# NCI-H596 = test system: NCI-H596
# Method in brief: as §1
# NCI-H1792 = test system: NCI-H1792
# Method in brief: as §1
# NCI-H661 = test system: NCI-H661
# Method in brief: as §1
# NCI-H1755 = test system: NCI-H1755
# Method in brief: as §1
# NCI-H1915 = test system: NCI-H1915
# Method in brief: as §1
# SK-MES-1 = test system: SK-MES-1
# Method in brief: as §1
# LCLC-103H = test system: LCLC-103H
# Method in brief: as §1
# NCI-H2347 = test system: NCI-H2347
# Method in brief: as §1
# NCI-H1651 = test system: NCI-H1651
# Method in brief: as §1
# LXF-289 = test system: LXF-289
# Method in brief: as §1
# NCI-H460 = test system: NCI-H460
# Method in brief: as §1
# RERF-LC-KJ = test system: RERF-LC-KJ
# Method in brief: as §1
# NCI-H1563 = test system: NCI-H1563
# Method in brief: as §1
smiles,measurement,setting,value
COc1nc(C)cnc1NS(=O)(=O)c1cccnc1-c1ccc(-c2nnco2)cc1 [Zibotentan] + C[C@@H](Oc1cc(-c2cnn(C3CCNCC3)c2)cnc1N)c1c(Cl)ccc(F)c1Cl [Crizotinib] (partner 1 µM),relative viability,NCI-H3122; first compound 0.08 µM,0.259
same,relative viability,NCI-H3122; first compound 0.253 µM,0.234
same,relative viability,NCI-H3122; first compound 0.8 µM,0.269
same,relative viability,NCI-H3122; first compound 2.53 µM,0.282
same,relative viability,PC-14; first compound 0.08 µM,0.907
same,relative viability,PC-14; first compound 0.253 µM,0.882
same,relative viability,PC-14; first compound 0.8 µM,0.968
same,relative viability,PC-14; first compound 2.53 µM,0.899
same,relative viability,NCI-H1355; first compound 0.08 µM,1.07
same,relative viability,NCI-H1355; first compound 0.253 µM,1.07
same,relative viability,NCI-H1355; first compound 0.8 µM,1.12
same,relative viability,NCI-H1355; first compound 2.53 µM,0.974
same,relative viability,NCI-H441; first compound 0.08 µM,0.772
same,relative viability,NCI-H441; first compound 0.253 µM,0.599
same,relative viability,NCI-H441; first compound 0.8 µM,0.982
same,relative viability,NCI-H441; first compound 2.53 µM,0.898
same,relative viability,NCI-H520; first compound 0.08 µM,0.857
same,relative viability,NCI-H520; first compound 0.253 µM,0.747
same,relative viability,NCI-H520; first compound 0.8 µM,0.798
same,relative viability,NCI-H520; first compound 2.53 µM,0.893
same,relative viability,NCI-H727; first compound 0.08 µM,0.985
same,relative viability,NCI-H727; first compound 0.253 µM,0.825
same,relative viability,NCI-H727; first compound 0.8 µM,0.806
same,relative viability,NCI-H727; first compound 2.53 µM,0.844
same,relative viability,NCI-H322M; first compound 0.08 µM,0.932
same,relative viability,NCI-H322M; first compound 0.253 µM,0.901
same,relative viability,NCI-H322M; first compound 0.8 µM,0.496
same,relative viability,NCI-H322M; first compound 2.53 µM,0.934
same,relative viability,NCI-H596; first compound 0.08 µM,0.942
same,relative viability,NCI-H596; first compound 0.253 µM,0.898
same,relative viability,NCI-H596; first compound 0.8 µM,0.989
same,relative viability,NCI-H596; first compound 2.53 µM,0.957
same,relative viability,NCI-H1792; first compound 0.08 µM,1.19
same,relative viability,NCI-H1792; first compound 0.253 µM,0.949
same,relative viability,NCI-H1792; first compound 0.8 µM,0.884
same,relative viability,NCI-H1792; first compound 2.53 µM,0.99
same,relative viability,NCI-H661; first compound 0.08 µM,0.971
same,relative viability,NCI-H661; first compound 0.8 µM,1.04
same,relative viability,NCI-H661; first compound 2.53 µM,0.853
same,relative viability,NCI-H1755; first compound 0.08 µM,0.891
same,relative viability,NCI-H1755; first compound 0.253 µM,0.887
same,relative viability,NCI-H1755; first compound 0.8 µM,0.826
same,relative viability,NCI-H1755; first compound 2.53 µM,0.873
same,relative viability,NCI-H1915; first compound 0.08 µM,0.968
same,relative viability,NCI-H1915; first compound 0.253 µM,0.879
same,relative viability,NCI-H1915; first compound 0.8 µM,0.957
same,relative viability,NCI-H1915; first compound 2.53 µM,0.945
same,relative viability,SK-MES-1; first compound 0.08 µM,1.12
same,relative viability,SK-MES-1; first compound 0.253 µM,1.02
same,relative viability,SK-MES-1; first compound 0.8 µM,0.969
same,relative viability,SK-MES-1; first compound 2.53 µM,0.932
same,relative viability,LCLC-103H; first compound 0.08 µM,0.932
same,relative viability,LCLC-103H; first compound 0.253 µM,0.965
same,relative viability,LCLC-103H; first compound 0.8 µM,0.97
same,relative viability,LCLC-103H; first compound 2.53 µM,1.05
same,relative viability,NCI-H2347; first compound 0.08 µM,0.706
same,relative viability,NCI-H2347; first compound 0.253 µM,0.476
same,relative viability,NCI-H2347; first compound 0.8 µM,0.715
same,relative viability,NCI-H2347; first compound 2.53 µM,0.672
same,relative viability,NCI-H1651; first compound 0.08 µM,0.962
same,relative viability,NCI-H1651; first compound 0.253 µM,0.823
same,relative viability,NCI-H1651; first compound 0.8 µM,0.837
same,relative viability,NCI-H1651; first compound 2.53 µM,0.862
same,relative viability,LXF-289; first compound 0.08 µM,0.882
same,relative viability,LXF-289; first compound 0.253 µM,0.804
same,relative viability,LXF-289; first compound 0.8 µM,0.822
same,relative viability,LXF-289; first compound 2.53 µM,0.805
same,relative viability,NCI-H460; first compound 0.08 µM,1.2
same,relative viability,NCI-H460; first compound 0.8 µM,1.01
same,relative viability,NCI-H460; first compound 2.53 µM,0.903
same,relative viability,RERF-LC-KJ; first compound 0.08 µM,0.921
same,relative viability,RERF-LC-KJ; first compound 0.253 µM,0.802
same,relative viability,RERF-LC-KJ; first compound 0.8 µM,0.786
same,relative viability,RERF-LC-KJ; first compound 2.53 µM,0.855
same,relative viability,NCI-H1563; first compound 0.08 µM,0.821
same,relative viability,NCI-H1563; first compound 0.253 µM,0.512
same,relative viability,NCI-H1563; first compound 0.8 µM,0.874
same,relative viability,NCI-H1563; first compound 2.53 µM,0.895
